Results on 16 compounds are retold here after patent US9206130B2, “Quinoline derivatives as AXL kinase inhibitors” (Max-Planck-Gesellschaft zur Förderung der Wissenschaften …, priority 2008, dated 2015).

Each structure is given as a SMILES string.

A word on the melting point: it is the temperature, or range, at which the solid turns liquid.

As for `COc1cc2c(Oc3ccc(NS(=O)(=O)c4cccc5ccccc45)cc3F)ccnc2cc1OCCCN1CCOCC1` [Example D48, Naphthalene-1-sulfonic acid {3-fluoro-4-[6-methoxy-7-(3-morpholin-4-yl-propoxy)-quinolin-4-yloxy]-phenyl}-amide], the melting point lay within 108 to 111 °C. The compound `COc1cc2nccc(Oc3ccc(NS(=O)(=O)c4ccccc4C(F)(F)F)cc3C)c2cc1OC` registered a melting point of 209 to 211 °C. The compound `COc1cc2c(Oc3ccc(NS(=O)(=O)c4ccccc4C(F)(F)F)cc3F)ccnc2cc1OCCCN1CCOCC1` [Example D39, N-{3-Fluoro-4-[6-methoxy-7-(3-morpholin-4-yl-propoxy)-quinolin-4-yloxy]-phenyl}-2-trifluoromethyl-benzenesulfonamide] showed a melting point of 180 to 181 °C. `COc1cc2nccc(Oc3ccc(NS(=O)(=O)c4cccc(C(F)(F)F)c4)c(F)c3)c2cc1OC` showed a melting point of 230 to 231 °C. Next, `COc1cc2nccc(Oc3ccc(NS(=O)(=O)c4ccc5c(c4)CC(=O)N5C)cc3F)c2cc1OC` [Example A125, 1-Methyl-2-oxo-2,3-dihydro-1H-indole-5-sulfonic acid [4-(6,7-dimethoxy-quinolin-4-yloxy)-3-fluoro-phenyl]-amide]: 163 to 165 °C. As for `COc1cc2c(Oc3ccc(NS(=O)(=O)c4ccccc4C(F)(F)F)cc3F)ccnc2cc1OCCN1CCOCC1`, the figure is 178 to 180 °C.

Consider `COc1cc2nccc(Oc3ccc(NS(=O)(=O)c4cccc(F)c4)c(F)c3)c2cc1OC`, for which the melting point lay in the range of 233 to 235 °C. Next, `COc1cc2c(Oc3ccc(NS(=O)(=O)c4cc(F)ccc4F)cc3F)ccnc2cc1OCCCN1CCOCC1` [Example D41, 2,5-Difluoro-N-{3-fluoro-4-[6-methoxy-7-(3-morpholin-4-yl-propoxy)-quinolin-4-yloxy]-phenyl}-benzenesulfonamide]: 192 to 195 °C.

As to `COc1cc2nccc(Oc3ccc(NS(=O)(=O)c4ccc(OCc5c(C)noc5C)cc4)cc3)c2cc1OC` [Example A87, N-[4-(6,7-Dimethoxy-quinolin-4-yloxy)-phenyl]-4-(3,5-dimethyl-isoxazol-4-ylmethoxy)-benzenesulfonamide], the melting point is 188 to 190 °C. Turning to `COc1cc2c(Oc3ccc(NS(=O)(=O)c4cccc(-c5ccccc5)c4)cc3F)ccnc2cc1OCCCN1CCOCC1` [Example D42, Biphenyl-3-sulfonic acid {3-fluoro-4-[6-methoxy-7-(3-morpholin-4-yl-propoxy)-quinolin-4-yloxy]-phenyl}-amide], the melting point was in the range of 210 to 212 °C. Take `COc1cc2c(Oc3ccc(NS(=O)(=O)c4ccc(Cl)cc4F)cc3F)ccnc2cc1OCCCN1CCOCC1` [Example D43, 4-Chloro-2-fluoro-N-{3-fluoro-4-[6-methoxy-7-(3-morpholin-4-yl-propoxy)-quinolin-4-yloxy]-phenyl}-benzenesulfonamide]: the melting point lay in the range of 200 to 203 °C. In the case of `COc1cc2c(Oc3ccc(NS(=O)(=O)c4ccccc4[N+](=O)[O-])cc3F)ccnc2cc1OCCCN1CCOCC1` [Example D46, N-{3-Fluoro-4-[6-methoxy-7-(3-morpholin-4-yl-propoxy)-quinolin-4-yloxy]-phenyl}-2-nitro-benzenesulfonamide], the melting point lay within 166 to 168 °C. In the case of `COc1cc2nccc(Oc3ccc(NS(=O)(=O)c4ccccc4C)c(F)c3)c2cc1OC`, the melting point lay within 218 to 220 °C. Next, `COc1cc2nccc(Oc3ccc(NS(=O)(=O)c4ccccc4C(F)(F)F)cc3F)c2cc1OC`: 80 to 83 °C; `COc1cc2nccc(Oc3ccc(NS(=O)(=O)c4ccccc4)c(F)c3)c2cc1OC`: 234 to 235 °C; `COc1cc2nccc(Oc3ccc(NS(=O)(=O)c4ccccc4C(F)(F)F)cc3OC)c2cc1OC`: 198 to 199 °C.
